Measured values published in ChEMBL document CHEMBL3856217, “A series of pyrido[2,3-b]pyrazin-3(4H)-one derivatives as aldose reductase inhibitors with antioxidant activity” (Eur J Med Chem, 2016).

What was measured:
[1] = Inhibition of rat lens ALR2 using D,L-glyceraldehyde as substrate preincubated for 10 mins followed by substrate addition measured for 5 mins
[2] = Antioxidant activity assessed as DPPH free radical scavenging activity at 100 uM after 30 mins by UV-spectrophotometric method relative to control; type: functional
[3] = Antioxidant activity assessed as DPPH free radical scavenging activity at 10 uM after 30 mins by UV-spectrophotometric method relative to control; type: functional
[4] = Antioxidant activity assessed as DPPH free radical scavenging activity at 50 uM after 30 mins by UV-spectrophotometric method relative to control; type: functional

Structure (SMILES)	IC50 [1] [nM]	Activity [2] [%]	Activity [3] [%]	Activity [4] [%]
O=C(O)Cn1c(=O)c(-c2cc(O)c(O)c(O)c2)nc2cccnc21	179	70.7	34.6	62.4
O=C(O)Cn1c(=O)c(/C=C/c2ccc(O)c(O)c2)nc2cc(Cl)cnc21	36	97.1	74.7	87.4
O=C(O)Cn1c(=O)c(-c2ccc(O)cc2O)nc2cc(Cl)cnc21	9	41.5	–	–
O=C(O)Cn1c(=O)c(-c2c(O)cc(O)cc2O)nc2cccnc21	68	83.5	40.2	70.9
O=C(O)Cn1c(=O)c(-c2ccc(O)cc2O)nc2cccnc21	185	37.7	–	–
COc1cc(CCc2nc3cccnc3n(CC(=O)O)c2=O)ccc1O	689	40.1	–	25.8
O=C(O)Cn1c(=O)c(-c2c(O)cc(O)cc2O)nc2cc(Cl)cnc21	18	85.2	41.3	69.8
O=C(O)Cn1c(=O)c(-c2ccc(O)cc2)nc2cccnc21	1030	6.5	–	–
COc1cc(O)cc(-c2nc3cccnc3n(CC(=O)O)c2=O)c1	5210	–	–	–
O=C(O)Cn1c(=O)c(-c2ccccc2)nc2cccnc21	9940	–	–	–
O=C(O)Cn1c(=O)c(/C=C/c2ccc(O)cc2)nc2cccnc21	35	57.6	–	44.5
O=C(O)Cn1c(=O)c(/C=C/c2ccc(O)cc2)nc2cc(Cl)cnc21	13	66.2	–	47.5
O=C(O)Cn1c(=O)c(/C=C/c2ccc(F)cc2)nc2cccnc21	126	42.7	–	–
Cc1c(C)c2c(c(C)c1O)CCC(C)(C(=O)O)O2 (configuration not stated)	–	96.2	78.2	89.6
O=C(O)Cn1c(=O)c(-c2cc(O)cc(O)c2)nc2cccnc21	296	30.3	–	–
O=C(O)Cn1c(=O)c(/C=C/c2ccc(O)c(O)c2)nc2cc(Br)cnc21	108	95.8	70.8	82.4
O=C(O)Cn1c(=O)c(/C=C/c2ccccc2)nc2cccnc21	895	78.9	35.5	64.1
COc1ccc(-c2nc3cccnc3n(CC(=O)O)c2=O)cc1O	2210	32.1	–	–
COc1cc(-c2nc3cccnc3n(CC(=O)O)c2=O)cc(O)c1OC	578	20.5	–	–
O=C(O)Cn1c(=O)c(/C=C/c2ccc(O)cc2)nc2cc(Br)cnc21	29	61.2	–	43.8
COc1c(O)cc(-c2nc3cccnc3n(CC(=O)O)c2=O)cc1O	319	45.6	–	–
O=C(O)Cn1c(=O)c(CCc2ccc(O)cc2)nc2cccnc21	918	35.2	–	–
COc1cc(/C=C/c2nc3cc(Cl)cnc3n(CC(=O)O)c2=O)ccc1O	87	94.9	62.3	81.8
COc1cc(/C=C/c2nc3cccnc3n(CC(=O)O)c2=O)ccc1O	307	85.5	48.6	75.6
O=C(O)Cn1c(=O)c(-c2ccc(O)c(O)c2)nc2cccnc21	831	50.5	–	–
COc1ccc(/C=C/c2nc3cccnc3n(CC(=O)O)c2=O)cc1	1520	52.8	–	39.1
O=C(O)Cn1c(=O)c(-c2ccc(O)cc2O)nc2cc(Br)cnc21	24	43.5	–	–
O=C(O)Cn1c(=O)c(/C=C/c2ccc(O)c(O)c2)nc2cccnc21	165	89.1	55.1	78.4
COc1cc(/C=C/c2nc3cc(Br)cnc3n(CC(=O)O)c2=O)ccc1O	389	90.1	59.6	75.4
